Measurements taken from patent US11319324B2, “Pyrazolo-pyrrolo-pyrimidine-dione derivatives as P2X3 inhibitors” (Bayer Aktiengesellschaft, priority 2017, dated 2022).

Legend:
Format in all cases: cell-based
human P2X2/3 receptors = target: T1, human P2X2/3 receptors (Homo sapiens, UniProt P56373+Q9UBL9); assay: Intracellular calcium measurement, antagonist activity at human P2X2/3 receptors (hP2X23 1321N1), Fluo8; conditions: for IC50: column 4); 1321N1 cells, human P2X2/3, Fluo8, agonist ATP at EC50; read-out: 4) hP2X2/3 IC50 [nM] (1321N1); for hP2X23/hP2X3* Selectivity (1321N1): ratio of column 4) hP2X2/3 to column 3) hP2X3, 1321N1
T1 construct: expressed in transfected cells; host or cells: human astrocytoma 1321N1 (1312N1 [sic])
T1 sequence (P56373 1-397): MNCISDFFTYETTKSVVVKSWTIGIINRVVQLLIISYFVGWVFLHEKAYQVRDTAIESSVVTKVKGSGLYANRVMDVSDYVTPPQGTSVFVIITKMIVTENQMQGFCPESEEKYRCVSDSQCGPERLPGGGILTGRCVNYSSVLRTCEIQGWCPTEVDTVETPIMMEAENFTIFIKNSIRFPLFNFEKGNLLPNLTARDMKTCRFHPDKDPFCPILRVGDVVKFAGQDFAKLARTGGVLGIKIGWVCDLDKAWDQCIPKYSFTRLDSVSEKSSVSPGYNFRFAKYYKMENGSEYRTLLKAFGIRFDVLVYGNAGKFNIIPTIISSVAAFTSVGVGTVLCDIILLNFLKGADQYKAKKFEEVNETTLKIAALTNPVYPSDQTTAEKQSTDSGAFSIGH
T1 sequence (Q9UBL9 1-471): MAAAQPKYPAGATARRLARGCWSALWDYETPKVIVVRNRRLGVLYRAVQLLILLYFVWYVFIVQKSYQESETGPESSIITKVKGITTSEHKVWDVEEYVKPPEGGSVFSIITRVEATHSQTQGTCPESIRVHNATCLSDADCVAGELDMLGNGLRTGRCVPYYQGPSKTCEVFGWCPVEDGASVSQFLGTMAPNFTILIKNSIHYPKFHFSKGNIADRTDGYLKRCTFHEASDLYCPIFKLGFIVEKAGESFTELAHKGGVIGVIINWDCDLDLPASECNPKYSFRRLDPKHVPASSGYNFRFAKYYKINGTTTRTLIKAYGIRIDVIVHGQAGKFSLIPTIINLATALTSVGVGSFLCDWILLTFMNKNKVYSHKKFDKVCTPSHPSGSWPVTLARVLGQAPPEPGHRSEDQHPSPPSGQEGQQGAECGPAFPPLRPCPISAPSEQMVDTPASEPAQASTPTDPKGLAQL
Procedure: (§1) 3) And 4) Intracellular Calcium Measurement to Compare Antagonist Activity at Human P2X3 Receptors (hP2X3 1321N1) and at Human P2X2/3 Receptors (hP2X23 1321N1)
(§2) The comparison of antagonistic activity at the P2X3 versus the P2X2/3 receptor of the compounds of the invention were performed by use of recombinant cell lines. These cell lines derived originally from the human astrocytoma cell line […] (Macintyre E H, Pontén J, Vatter A E. Acta Pathol Microbiol Scand A. 1972; 80(2):267-83). The cell lines are stably transfected with the human P2X3 receptor forming homotrimeric P2X3 receptors or are co-transfected with P2X2 and P2X3 forming heterotrimeric P2X2/3 receptors. Stimulation of the receptors with the agonist ATP leads to a conformational change of the receptors and influx of extracellular calcium ions through the open ion channel. The cytoplasmatic calcium transient is detected via the calcium sensitive dye Fluo8. The strength of Fluo8 fluorescence signal corresponds to the level of receptor activation. An inhibitor would decrease the signal depending on its potency and concentration. Fluorescence was measured by use of a suitable fluorescence reader.
(§3) On the day before the assay, the cells were plated in culture medium (DMEM high glucose, 10% FCS, 1% MEM non-essential amino acids, 4 mM Glutamax) in 384-well poly-D-lysine coated microtiter plates and kept in a cell incubator (96% humidity, 5% v/v CO2, 37° C.). On the day of the assay medium was exchanged by Fluo8 containing buffer and incubated for 60 minutes. Test compounds were added at various concentrations and plates were incubated for 10 minutes. In the fluorescence reader a 3 seconds baseline measurement was performed and the agonist ATP was applied at EC50 concentration of the respective receptor during constant fluorescence measurement for 120 seconds.

human P2X3 receptor [1] = target: T2, human P2X3 receptor (Homo sapiens, UniProt P56373); assay: Intracellular calcium measurement to assess antagonist activity at human P2X3 receptors (hP2X3 CHO), photina luminescence; parameters: expressed in transfected cells; host or cells: Chinese hamster ovary (CHO) cells; conditions: column 2), CHO cells, agonist α,β-methylene-ATP at EC50
T2 sequence (P56373 1-397): T1 sequence (P56373 1-397)
Procedure: 2) Intracellular Calcium Measurement to Assess Antagonist Activity at Human P2X3 Receptors (hP2X3 CHO)
The determination of antagonistic activity at the P2X3 receptor of the compounds of the invention was performed by use of a recombinant cell line. This cell line derives originally from the Chinese hamster ovary (CHO) cell line (Tjio J. H.; Puck T. T., 1958, J. Exp. Med. 108: 259-271). The cell line is stably transfected with the human P2X3 receptor and a calcium-sensitive photoprotein, mitochondrial photina, which, after reconstitution with the cofactor coelenterazine, emits light in dependence of calcium binding [Bovolenta S, Foti M, Lohmer S, Corazza S., J Biomol Screen. 2007 August; 12(5):694-704]. The strength of the photina luminescence signal corresponds to the level of receptor activation upon agonist binding. An inhibitor would decrease the signal depending on its potency and concentration. Bioluminescence was detected using a suitable luminometer [Milligan G, Marshall F, Rees S, Trends in Pharmacological Sciences 17,235-237 (1996)].
On the day before the assay, the cells were plated out in culture medium (DMEM/F12 (PAN, P04-41451), 10% FCS) in 384-well microtiter plates and kept in a cell incubator (96% humidity, 5% v/v CO2, […]). On the day of the assay medium was replaced by 2 mM Ca-tyrode buffer containing 5 μg/ml coelenterazine. Plates were incubated for 3 hours at 37° C. (96% humidity, 5% v/v CO2). […] The resulting light signal was measured immediately in the luminometer.

human P2X3 receptor [2] = target: T2, human P2X3 receptor; assay: Intracellular calcium measurement, antagonist activity at human P2X3 receptors (hP2X3 1321N1), Fluo8; parameters: expressed in transfected cells; host or cells: human astrocytoma 1321N1 (1312N1 [sic]); conditions: column 3); 1321N1 cells, human P2X3, Fluo8, agonist ATP at EC50
Procedure: as §1, §2, §3

Compound | IC50 (human P2X2/3 receptors) [nM] | hP2X23/hP2X3* Selectivity (1321N1) (human P2X2/3 receptors) | IC50 (human P2X3 receptor [1]) [nM] | IC50 (human P2X3 receptor [2]) [nM]
CC(C)N1Cc2c(n(CC(=O)Nc3ccc(F)cn3)c3cc(CO)nn3c2=O)C1=O [Example 72] | > 32000 | >136 | 120 | 235
CC(C)N1Cc2c(n(CC(=O)Nc3ccc(F)cn3)c3cc(NC(=O)C(F)F)nn3c2=O)C1=O [Example 283] | > 32000 | >92 | 165 | 347
CCc1cc2n(CC(=O)Nc3ccc(F)cn3)c3c(c(=O)n2n1)CN(CC1CCCO1)C3=O (racemic) [Example 77, 2-{2-ethyl-5,8-dioxo-6-[(±)-tetrahydrofuran-2-ylmethyl]-5,6,7,8-tetrahydro-4H-pyrazolo[1,5-a]pyrrolo[3,4-d]pyrimidin-4-yl}-N-(5-fluoropyridin-2-yl)acetamide] | 9050 | 49 | 102 | 185
CNC(=O)c1cc2n(CC(=O)Nc3ccc(F)cn3)c3c(c(=O)n2n1)CN([C@@H](C)COC)C3=O [Example 193] | > 22500 | >180 | 155 | 125
CC(C)N1Cc2c(n(CC(=O)Nc3ccc(F)cn3)c3cc(C(=O)N4CCN(C)CC4)nn3c2=O)C1=O [Example 188] | > 32000 | >267 | 91 | 120
CCc1cc2n(CC(=O)Nc3ccc(F)cn3)c3c(c(=O)n2n1)CN(CCCOC)C3=O [Example 109] | > 32000 | >114 | 133 | 280
CC(C)N1Cc2c(n(CC(=O)Nc3ccc(F)cn3)c3cc(C4CCN(C)CC4)nn3c2=O)C1=O [Example 251] | > 32000 | >164 | 235 | 195
CC(=O)Nc1cc2n(CC(=O)Nc3ccc(F)cn3)c3c(c(=O)n2n1)CN(C(C)C)C3=O [Example 282, 2-[2-(acetylamino)-5,8-dioxo-6-(propan-2-yl)-5,6,7,8-tetrahydro-4H-pyrazolo[1,5-a]pyrrolo[3,4-d]pyrimidin-4-yl]-N-(5-fluoropyridin-2-yl)acetamide] | > 32000 | >99 | 110 | 323
CCc1cc2n(CC(=O)Nc3ccc(C)cn3)c3c(c(=O)n2n1)CN(C(C)C)C3=O [Example 65] | 10500 | 51 | 200 | 207
CC(C)N1Cc2c(n(CC(=O)Nc3ccc(F)cn3)c3cc(C4CCC(=O)N4C)nn3c2=O)C1=O (racemic) [Example 231, N-(5-fluoropyridin-2-yl)-2-{2-[(±)-1-methyl-5-oxopyrrolidin-2-yl]-5,8-dioxo-6-(propan-2-yl)-5,6,7,8-tetrahydro-4H-pyrazolo[1,5-a]pyrrolo[3,4-d]pyrimidin-4-yl}acetamide] | > 23500 | – | 95 | –

These reach a lower IC50 (human P2X2/3 receptors). Values come first.

IC50 (human P2X2/3 receptors) [nM] | hP2X23/hP2X3* Selectivity (1321N1) (human P2X2/3 receptors) | IC50 (human P2X3 receptor [1]) [nM] | IC50 (human P2X3 receptor [2]) [nM] | Compound
2300 | 118 | 23 | 20 | CC(C)N1Cc2c(n(CC(=O)Nc3ccc(F)cn3)c3cc(C(=O)N4CCCCC4)nn3c2=O)C1=O [Example 183]
1400 | 424 | 10 | 3 | COC[C@H](C)N1Cc2c(n(CC(=O)Nc3ccc(F)cn3)c3cc(-c4cc(C)ncc4C)nn3c2=O)C1=O [Example 158]
1460 | 328 | 9 | 4 | COC[C@H](C)N1Cc2c(n(CC(=O)Nc3ccc(F)cn3)c3cc(-c4ccncc4C)nn3c2=O)C1=O [Example 152, N-(5-fluoropyridin-2-yl)-2-{6-[(2S)-1-methoxypropan-2-yl]-2-(3-methylpyridin-4-yl)-5,8-dioxo-5,6,7,8-tetrahydro-4H-pyrazolo[1,5-a]pyrrolo[3,4-d]pyrimidin-4-yl}acetamide]
5450 | 98 | 81 | 56 | CCc1cc2n(CC(=O)Nc3ccc(Cl)cn3)c3c(c(=O)n2n1)CN(C(C)C)C3=O [Example 66]
1700 | 447 | 8 | 4 | Cc1ccc(-c2cc3n(CC(=O)Nc4ccc(F)cn4)c4c(c(=O)n3n2)CN(C(C)C)C4=O)nc1 [Example 69]
6450 | – | 22 | – | COC[C@H](C)N1Cc2c(n(CC(=O)Nc3ccc(F)cn3)c3cc(C(=O)N(C)c4ccccn4)nn3c2=O)C1=O [Example 214]
345 | – | 5 | – | CCc1cc2n(CC(=O)Nc3ccc(F)cn3)c3c(c(=O)n2n1)CN(C(C)(C)COCc1ccccc1)C3=O [Example 120, 2-{6-[1-(benzyloxy)-2-methylpropan-2-yl]-2-ethyl-5,8-dioxo-5,6,7,8-tetrahydro-4H-pyrazolo[1,5-a]pyrrolo[3,4-d]pyrimidin-4-yl}-N-(5-fluoropyridin-2-yl)acetamide]
3700 | – | 20 | – | COC[C@H](C)N1Cc2c(n(CC(=O)Nc3ccc(F)cn3)c3cc(-c4ncccc4C)nn3c2=O)C1=O [Example 164]
1460 | – | 13 | – | CC(C)N1Cc2c(n(CC(=O)Nc3ccc(F)cn3)c3cc(-c4ccc(F)cn4)nn3c2=O)C1=O [Example 165]
2680 | – | 17 | – | CC(C)N1Cc2c(n(CC(=O)Nc3ccc(F)cn3)c3cc(C(=O)Nc4cccnc4)nn3c2=O)C1=O [Example 207]
1200 | – | 6 | – | COC[C@H](C)N1Cc2c(n(CC(=O)Nc3ccc(F)cn3)c3cc(-c4ccc(C)cn4)nn3c2=O)C1=O [Example 162]
5600 | – | 20 | – | COC[C@H](C)N1Cc2c(n(CC(=O)Nc3ccc(F)cn3)c3cc(C(=O)Nc4cccnn4)nn3c2=O)C1=O [Example 216]
